As a reminder, the Kb is the equilibrium dissociation constant of an antagonist, usually derived from a functional assay. Read a low Kb as a more potent antagonist.

This note sets out measurements from patent publication US12195447B2, “Azolopyrimidine for the treatment of cancer-related disorders” (ARCUS BIOSCIENCES, INC., priority 2017, dated 2025).

The target of one experiment is T1, A2BR (Homo sapiens, UniProt P29275).
T1 sequence (P29275 1-332): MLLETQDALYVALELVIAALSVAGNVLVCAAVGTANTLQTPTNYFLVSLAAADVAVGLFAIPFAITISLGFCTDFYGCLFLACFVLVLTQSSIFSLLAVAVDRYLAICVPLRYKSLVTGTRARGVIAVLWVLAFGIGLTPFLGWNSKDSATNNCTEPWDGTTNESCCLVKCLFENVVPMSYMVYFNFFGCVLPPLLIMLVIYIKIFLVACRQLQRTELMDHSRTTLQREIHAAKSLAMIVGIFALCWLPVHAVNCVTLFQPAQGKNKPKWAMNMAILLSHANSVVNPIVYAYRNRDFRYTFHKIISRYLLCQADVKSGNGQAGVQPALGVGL
As to the kind of experiment: Potency on A2BR (no method described). Conditions: summary statement.

Experiment [1] has as its target T2, adenosine A2A receptor (A2AR) (Homo sapiens, UniProt P29274).
T2 construct: expressed in transfected cells
Put plainly: A2AR/TREx CHO cAMP functional assay (antagonist mode, NECA EC80). The format is cell-based. The method, then:
Functional assays may also be employed to assess the compounds of the present invention. The cAMP assay described in detail below was used to evaluate certain compounds described herein.
Measurement of the Adenosine Receptor Activity of Compound I Using a A2AR/TREx CHO cAMP Functional Assay
Dose response of NECA (5-N-ethylcarboxamidoadenosine), a non-selective adenosine receptor agonist, was performed daily to determine the EC80 of NECA used in the cAMP functional assay. 1000-2500 cells/well of stably expressed A2AR TRex CHO cells were seeded to the 384-well Opti plate (Perkin Elmer) followed by incubating NECA at varies concentrations (ranging from 10 μM to 0 μM) at 37° C. for 30 min. […] FRET signal was detected with Envision multilabel plate reader (Perkin Elmer) when Eu-cAMP tracer excitation at 615 nm and emission at 665 nm. […]
The cAMP antagonist functional assay (Perkin Elmer) was performed on A2AR TRex CHO stable cell lines. […] FRET signal was detected when Eu-cAMP tracer excitation at 615 nm and emission at 665 nm. […]
Particular compounds were evaluated for adenosine A2A receptor activity as described for the cAMP assay above. […]

T2 sequence (P29274 whole entry): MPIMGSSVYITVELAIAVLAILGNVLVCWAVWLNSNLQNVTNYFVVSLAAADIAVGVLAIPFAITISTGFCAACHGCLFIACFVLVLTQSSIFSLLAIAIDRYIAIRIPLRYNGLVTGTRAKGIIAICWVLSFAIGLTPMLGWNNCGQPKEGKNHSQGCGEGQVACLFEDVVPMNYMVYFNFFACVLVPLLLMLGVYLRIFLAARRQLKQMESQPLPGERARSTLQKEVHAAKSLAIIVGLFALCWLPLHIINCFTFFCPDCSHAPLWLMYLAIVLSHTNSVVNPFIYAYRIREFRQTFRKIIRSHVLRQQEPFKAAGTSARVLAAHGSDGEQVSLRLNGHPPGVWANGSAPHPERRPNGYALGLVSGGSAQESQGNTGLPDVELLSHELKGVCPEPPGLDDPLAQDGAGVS

As for `Cc1c(C#N)cccc1-c1cc(-c2cn(Cc3cccc(C(C)(C)O)n3)nn2)nc(N)n1` [Compound I, 3-[2-amino-6-(1-{[6-(2-hydroxypropan-2-yl)pyridin-2-yl]methyl}-1H-1,2,3-triazol-4-yl)pyrimidin-4-yl]-2-methylbenzonitrile], the “potency on A2BR (antagonist)” value on A2BR is recorded as “less than 10 nM”. This compound also yielded a Kb in experiment [1] of less than 10 nM. Moreover, the “potency on A2AR (antagonist)” value in experiment [1] (summary statement) is “less than 10 nM”.
